In US6500827B2, “Drug combinations” (Pharmacia & Upjohn Company, priority 1998, dated 2002):

How the values were obtained:
tolerability and safety = conditions: in vivo
Procedure: It is more commonly provided in dosages of from 1 to 20 mg per patient per day. […] Other adverse reactions are possible. […] Both compounds may be administered by any suitable method including a convenient oral dosage form. A preferred method is oral dosing twice a day.

I-adrenerigic receptors = assay: interaction with I-adrenerigic receptors; type: binding
[1] = system: muscarinic cholinergic receptors; assay: interaction with muscarinic cholinergic receptors; type: binding
[2] = system: patients with a DSM-III-R diagnosis of Obsessive Compulsive Disorder; assay: trial in patients with Obsessive Compulsive Disorder; type: in vivo, human; conditions: of 10 OCD patients, 6 mg first week then 8 mg, 3 to 4 weeks
Excerpt: This study is provided to illustrate the usefulness of using reboxetine as a treatment for OCD and the invention described herein should not be considered limited by this example.

8-OH-DPAT hypothermia = conditions: in vivo; cited from earlier work
monoamine oxidase (MAO) = system: monoamine oxidase (MAO)
Excerpt: (§1) Leonard-BE, “Noradrenaline in basic models of depression.” European-Neuropsychopharnacol. April 1997; 7 Suppl 1: S11-6; discussion S71-3.

serotonin uptake = system: serotonin uptake
Excerpt: as §1

dopamine uptake = system: dopamine uptake
Excerpt: as §1

norepinephrine uptake = conditions: compared with classical tricyclic antidepressants
Excerpt: as §1

| Compound | tolerability / safety (tolerability and safety) | interaction with I-adrenerigic receptors (I-adrenerigic receptors) | interaction with muscarinic cholinergic receptors [1] | patients judged minimally improved at CGI last assessment [2] | patients judged much improved at CGI last assessment [2] | patients judged very much improved at CGI last assessment [2] | patients unchanged at CGI last assessment [2] | effect in the 8-OH-DPAT hypothermia test (8-OH-DPAT hypothermia) | monoamine oxidase (MAO) inhibitory activity (monoamine oxidase (MAO)) | serotonin uptake inhibitory activity (serotonin uptake) | dopamine uptake inhibitory activity (dopamine uptake) | inhibition of the reuptake of noradrenaline (norepinephrine uptake) |
| --- | --- | --- | --- | --- | --- | --- | --- | --- | --- | --- | --- | --- |
| CC(C)NCC(O)COc1cccc2[nH]ccc12 (stereo not drawn) [Pindolol, 1-(1H-Indol-4-yloxy)-3-[(1-methylethyl)amino]-2-propanol] | fairly safe |  |  |  |  |  |  |  |  |  |  |  |
| CCOc1ccccc1OC(c1ccccc1)C1CNCCO1 (stereo not drawn) [reboxetine] |  | without showing any appreciable interaction | without showing any appreciable interaction | 2 | 4 | one | 3 | ineffective | devoid | only marginal | no dopamine uptake inhibitory activity | inhibitory properties of classical tricyclic antidepressants |
